Experimental findings from article PMC6240063, “An improved genome assembly for Larimichthys crocea reveals hepcidin gene expansion with diversified regulation and function” (Communications Biology, 2018) are described below.

Ends that are not written are not given here.

In assay [1] the test system is five gram-negative bacteria and three gram-positive bacteria. The assay is described as follows: Minimum inhibitory concentration across all tested bacteria. In kind it is cell-based. To be noted: all eight tested bacteria (five gram-negative, three gram-positive); liquid growth inhibition; no antibacterial activity at highest concentration given as >. From the text:
(§1) The mature peptides of LcHamp1 (HAMP1: […]), LcHamp2-1/4 (HAMP2-1/4: […]), LcHamp2-2 (HAMP2-2: […]), LcHamp2-3 (HAMP2-3: GSPARCRFCCR CCPGMRGCGICCRF), and LcHamp2-5 (HAMP2-5: […]) were synthesized, oxidized, and purified by GL Biochem (Shanghai) Ltd. (Shanghai, China). Purity of the synthesized peptides was >/95%. The synthetic peptides were reconstituted in phosphate buffered saline (PBS; pH 7.4). We tested the antimicrobial activity of synthesized peptides against the five gram-negative bacteria A. hydrophila, E. coli, V. alginolyticus, V. harvryi, and V. parahemolyticus, and three gram-positive bacteria B. subtilis, B. amyloliquefaciens, and S. aureus using liquid growth inhibition assays. The minimum inhibitory concentration was considered the lowest concentration that induced a 100% decrease in the optical density of the bacterial suspension.

Assay [2] concerns Singapore grouper iridovirus (SGIV). The assay can be described thus: Antiviral activity in SGIV-infected grouper spleen cells. Conditions: grouper spleen cells pretreated 1 h with 50 µg/mL peptide, SGIV at MOI 2; cytopathic effect, ORF072 and ORF086 expression (real-time PCR), viral titer TCID50; three independent experiments. The assay is classed as cell-based. How it is done: The antiviral activity of synthetic L. crocea hepcidins was tested in grouper spleen cells, in which a viral infection model has already been established. Grouper spleen cells were seeded onto 6-well plates (Thermo Fisher Scientific, USA) for 18 h. The grouper spleen cells were pretreated for 1 h with each synthetic Hamp peptide at a final concentration of 50 µg/mL or with PBS (as a control). After pretreatment, the cells were infected with SGIV at a multiplicity of infection of 2. At 24 h post infection, cytopathic effects in the grouper spleen cells were observed microscopically (Leica Microsystems, Germany). The expression levels of two genes encoding SGIV envelope proteins (ORF072 and ORF086) were measured with real-time PCR. E. coioides β-actin (Ecβ-actin) was amplified as an internal control. The expression level of ORF072 or ORF086 was normalized to Ecβ-actin using the 2^–ΔΔCT method. Moreover, supernatants and infected cell lysates were collected to determine the viral titer 50% tissue culture infectious dose[50]. All data were obtained from three independent experiments with each performed in triplicate.

Assay [3] relates to macrophages from L. crocea head kidney. The assay is described as follows: Intracellular iron in macrophages. The assay is classed as cell-based, Larimichthys crocea. Conditions: 100 ng/mL peptide, 2 h, ICP-MS, versus PBS control, P < 0.05, three independent experiments. The method, then:
Six groups of macrophages (1 × 10^6 cells per well) were seeded onto 6-well plates for 18 h. To each of five of the groups, we added one synthetic hepcidin peptide from L. crocea, with a final concentration of 100 ng/mL. The sixth group (control) was treated with PBS. After 2 h incubation, we measured the intracellular iron concentration of macrophages with Inductively Coupled Plasma Mass Spectrometry. The fold change was expressed as the intracellular iron concentration in macrophages treated with synthetic hepcidin peptides versus the intracellular iron concentration in the control macrophages.

Assay [4] deals with Aeromonas hydrophila. The assay can be described thus: Minimum inhibitory concentration, liquid growth inhibition assay. In kind it is cell-based. Conditions: gram-negative, lowest concentration giving 100% decrease in optical density, peptide in PBS pH 7.4.
Source text: as §1

In assay [5] the test system is Bacillus amyloliquefaciens. Described as above. In kind it is cell-based. To be noted: gram-positive, lowest concentration giving 100% decrease in optical density, peptide in PBS pH 7.4.
Source text: as §1

For assay [6], the system named is Bacillus subtilis. The description is as above. In kind it is cell-based. Conditions: gram-positive, lowest concentration giving 100% decrease in optical density, peptide in PBS pH 7.4.
Source text: as §1

Assay [7] has as its system Escherichia coli. Described as above. In kind it is cell-based. To be noted: gram-negative, lowest concentration giving 100% decrease in optical density, peptide in PBS pH 7.4.
Source text: as §1

In assay [8] the test system is Staphylococcus aureus. The assay is described as above. The assay is classed as cell-based. To be noted: gram-positive, lowest concentration giving 100% decrease in optical density, peptide in PBS pH 7.4.
Source text: as §1

The subject of assay [9] is Vibrio alginolyticus. The assay is described as above. The assay is classed as cell-based. Conditions: gram-negative, lowest concentration giving 100% decrease in optical density, peptide in PBS pH 7.4.
Source text: as §1

The subject of assay [10] is Vibrio harveyi. Described as above. In kind it is cell-based. To be noted: gram-negative, lowest concentration giving 100% decrease in optical density, peptide in PBS pH 7.4.
Source text: as §1

The test system of assay [11] is Vibrio parahaemloyticus. The assay is described as above. To be noted: gram-negative, lowest concentration giving 100% decrease in optical density, peptide in PBS pH 7.4. The assay is classed as cell-based.
Source text: as §1

“QSHISLCRYCCNCCKNKGCGYCCRF (disulfide (positions not given here)) [HAMP1, synthetic, oxidized mature peptide of Larimichthys crocea hepcidin LcHamp1]”: in assay [1], the “minimum inhibitory concentrations for the bacterial species tested” value (shortened to “minimum inhibitory concentrations”) is listed as above 300 µM. In addition, in assay [2], the “antiviral activity against SGIV infection” value (“antiviral activity” for short) is on record as “no identifiable antiviral activity”. For the same sequence, the “intracellular iron content of macrophages (regulatory effect on iron metabolism)” value (“intracellular iron content” for short) in assay [3] is reported as “increases in iron content”.
Consider “GSPARCRFCCRCCPRMRGCGICCRF (disulfide) (disulfide (positions not given here)) [HAMP2-5, synthetic, oxidized mature peptide of Larimichthys crocea hepcidin LcHamp2-5]”, for which the minimum inhibitory concentration (MIC) stood at 1 µM in [4]; 1 µM in assay [5]; 0.25 µM in assay [6]; 0.5 µM in assay [7]; 0.5 µM in assay [8]; 0.25 µM in [9]. For the same sequence, the minimum inhibitory concentration (MIC) in [10] and in assay [11] was 0.5 µM each time. In addition, the “antiviral activity” value in assay [2] is on record as “no identifiable antiviral activity”.
Turning to “SSAAKCQFCCRCCPDMIGCGICCRF (disulfide (positions not given here)) [HAMP2-1/4]”, the “minimum inhibitory concentrations” value in assay [1] was above 300 µM. In addition, the “antiviral activity” value in [2] is “exhibited antiviral activity”. Moreover, the “intracellular iron content” value in assay [3] was “increases in iron content”.
In the case of “SSAAKCQFCCRCCPRMSGCGVCCRF (disulfide (positions not given here)) [HAMP2-2, synthetic, oxidized mature peptide of Larimichthys crocea hepcidin LcHamp2-2]”, the “minimum inhibitory concentrations” value in assay [1] is given as above 300 µM. Further, the “antiviral activity” value in assay [2] is reported as “no identifiable antiviral activity”. The “intracellular iron content” value in [3] was “no antibacterial activity, antiviral activity or regulatory effect on iron metabolism”.
In the case of “GSPARCRFCCR CCPGMRGCGICCRF (disulfide) (disulfide (positions not given here)) [HAMP2-3, synthetic, oxidized mature peptide of Larimichthys crocea hepcidin LcHamp2-3]”, the MIC in assay [4] was determined as 16 µM; in assay [5], 8 µM; in assay [6], 4 µM; in assay [7] it was 16 µM; in assay [8], 4 µM; in [9], 16 µM. Further, the minimal inhibitory concentration (MIC) in assay [10] and in assay [11] was 16 µM each time. In assay [2], the “antiviral activity” value is reported as “exhibited antiviral activity”.
